Laboratory results reported in US11779567B2, “Method for optimizing 5-hydroxytryptamine function in the brain for therapeutic purposes” (Evecxia Therapeutics, Inc., priority 2021, dated 2023).

Test: Plasma escitalopram levels in Phase 1 study
Type: in vivo, human
Details: for Escitalopram plasma levels, Average Day 21-23 / concentration at 21 day / concentration at 22 day / concentration at 23 day: 20 mg/day oral; for Escitalopram plasma levels, Average Day 21-23 / concentration at 7 day / concentration at 21 day / concentration at 22 day / concentration at 23 day: mean ± SEM; for concentration at 7 day / concentration at 21 day / concentration at 22 day / concentration at 23 day: both sexes, human, plasma; for concentration at 7 day: 10 mg/day, after 10 mg/day oral
Method: Study Design. A Phase 1, randomized, double-blind, placebo-controlled, single ascending dose study was performed to evaluate the safety, tolerability and pharmacokinetics (PK) of 5-HTP solution for IV infusion when administered to healthy adults taking a selective serotonin reuptake inhibitor (SSRI), escitalopram, for 3 weeks. Study duration was 37±3 days. The total individual subject participation time was no more than 66 days including screening, dosing, and follow-up phases. The IV infusion duration was 24 h, dosing with 5-HTP solution for IV infusion (see Example 3, above) or placebo (0.9% saline).
Pre-treatment with escitalopram. All subjects received pretreatment with escitalopram for 3 weeks prior to and during the 24 h IV infusion. A supply of escitalopram was provided for self-administration at a dose of 10 mg/day for 7 days. On Day 7 subjects were evaluated for general health and tolerability of escitalopram. Escitalopram compliance confirmation was evaluated by taking a blood draw for escitalopram plasma level measurements and by monitoring pill count using a diary. On Day 7 the subjects received a supply of 20 mg escitalopram tablets and self-administered 20 mg/day until Day 20 when they were admitted to the impatient clinic. Escitalopram was co-administered orally on Day 21-23 by clinical staff. Escitalopram treatment was tapered from 20 mg/day to 10 mg/day after the end of the infusion and continued for 8 days.
Bioanalysis. Plasma samples for 5-HTP analysis were collected and stored at −80° C. Plasma samples for escitalopram analysis were collected and stored at −80° C. Plasma 5-HTP levels and plasma escitalopram levels were measured using standard liquid chromatography with tandem mass spectrometry (LC-MS-MS) methods. For 5-HTP analysis, plasma samples were collected at T=0, 1, 2, 3, 4, 5, 6, 8, 10, 12, 14, 22, 24, 26, 28, 30, 32, 36, and 48 hr. For escitalopram analysis, plasma samples were collected on Day 7, Day 21 (pre-infusion), Day 22 (end of infusion), and Day 23 (24 hr after end of infusion). Plasma escitalopram levels were averaged across days 21-23, during the time-period when subjects were admitted to the clinic and received 5-HTP solution for IV infusion or placebo.
PK analysis of plasma escitalopram. Plasma escitalopram levels across Days 21-23 were averaged for each subject, and statistical analysis by one-way ANOVA for cohort differences executed using GraphPad Prism version 9.4.1.

[1] = oral, Cohort 1 (5-HTP 1 mg/kg, Constant)
[2] = oral, Cohort 2 (5-HTP 3 mg/kg, Constant)
[3] = oral, Cohort 3 (5-HTP 3 mg/kg, Ramped)
[4] = oral, 20 mg/day, Cohort 4 (5-HTP 2 mg/kg, Ramped)
[5] = oral, 20 mg/day, Cohort 5 (5-HTP 1 mg/kg, Ramped)
[6] = po, 20 mg/day, Cohorts 1-5 pooled, placebo infusion instead of 5-HTP, N=10

Escitalopram plasma levels, Average Day 21-23 (Cohort 1 (5-HTP 1 mg/kg, Constant)): 39.7 ± 8.9 ng/mL
Escitalopram plasma levels, Average Day 21-23 (Cohort 2 (5-HTP 3 mg/kg, Constant)): 25.6 ± 6.5 ng/mL
Escitalopram plasma levels, Average Day 21-23 (Cohort 3 (5-HTP 3 mg/kg, Ramped)): 39.1 ± 4.8 ng/mL
Escitalopram plasma levels, Average Day 21-23 (Cohort 4 (5-HTP 2 mg/kg, Ramped)): 29.2 ± 6.2 ng/mL
Escitalopram plasma levels, Average Day 21-23 (Cohort 5 (5-HTP 1 mg/kg, Ramped)): 24.4 ± 5.0 ng/mL
Escitalopram plasma levels, Average Day 21-23 (Cohorts 1-5 pooled, placebo infusion instead of 5-HTP, N=10): 44.0 ± 8.2 ng/mL
average plasma escitalopram levels, range across treatment groups (Days 21-23, 20 mg/day oral): 24 to 44 ng/mL
concentration at 7 day [1]: 19.3 ± 3.1 ng/mL
concentration at 7 day [2]: 10.1 ± 1.5 ng/mL
concentration at 7 day [3]: 17 ± 2.3 ng/mL
concentration at 7 day (oral, Cohort 4 (5-HTP 2 mg/kg, Ramped)): 14.2 ± 2.5 ng/mL
concentration at 7 day (oral, Cohort 5 (5-HTP 1 mg/kg, Ramped)): 11.4 ± 2.3 ng/mL
concentration at 21 day (oral, 20 mg/day, Cohort 1 (5-HTP 1 mg/kg, Constant)): 39.8 ± 12.3 ng/mL
concentration at 21 day (oral, 20 mg/day, Cohort 2 (5-HTP 3 mg/kg, Constant)): 22.5 ± 10.2 ng/mL
concentration at 21 day (oral, 20 mg/day, Cohort 3 (5-HTP 3 mg/kg, Ramped)): 43.5 ± 4.5 ng/mL
concentration at 21 day [4]: 28.5 ± 5.8 ng/mL
concentration at 22 day [4]: 28.8 ± 6.2 ng/mL
concentration at 23 day [4]: 30.3 ± 7 ng/mL
concentration at 21 day [5]: 21.7 ± 3.4 ng/mL
concentration at 22 day [5]: 22.2 ± 4.7 ng/mL
concentration at 23 day [5]: 29.2 ± 7.5 ng/mL
concentration at 22 day [1]: 37.9 ± 7.3 ng/mL
concentration at 23 day [1]: 41.6 ± 7.6 ng/mL
concentration at 22 day [2]: 24.3 ± 5.7 ng/mL
concentration at 23 day [2]: 30 ± 3.7 ng/mL
concentration at 22 day [3]: 37.3 ± 5.9 ng/mL
concentration at 23 day [3]: 36.6 ± 4.1 ng/mL
concentration at 7 day (po, Cohorts 1-5 pooled, placebo infusion instead of 5-HTP, N=10): 18.3 ± 3.1 ng/mL
concentration at 21 day [6]: 43.3 ± 8.4 ng/mL
concentration at 22 day [6]: 45.2 ± 9.1 ng/mL
concentration at 23 day [6]: 43.5 ± 7.5 ng/mL
Structure (SMILES): CN(C)CCC[C@@]1(c2ccc(F)cc2)OCc2cc(C#N)ccc21 [Escitalopram, escitalopram]
